The record followed here is PubChem BioAssay (NCI).

Test systems include SNB-75 CNS; EKVX NSCLC; MDA-N; MDA-MB-231 breast; ACHN renal; SF-268 CNS; BT-549 breast; T-47D breast; SF-295 CNS; HT29 colon; M14 melanoma; A498 renal.
Test in all cases: NCI-60 cell line screen, 48 h

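Values below derive from 48-hour exposures of cells grown in 96-well plates, with endpoints linearly interpolated between the two concentrations bracketing the appropriate inhibition level. TGI marks complete inhibition of growth.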

Consider `O=C(NNc1nc(-c2ccccc2)cs1)Nc1ccccc1`, for which the TGI was 69.3 µM in the assay on SNB-75 CNS; over 100 µM with EKVX NSCLC; 65.8 µM in the assay on MDA-N; 54.4 µM in the assay on MDA-MB-231 breast; over 100 µM in the assay with ACHN renal; 80.9 µM in the assay with SF-268 CNS. The TGI in the assay with BT-549 breast was 60.9 µM; with T-47D breast, 66.8 µM; in the assay on SF-295 CNS, 83.6 µM; in the assay on HT29 colon, 76.2 µM; in the assay with M14 melanoma it was over 100 µM.

As to `COC(=O)C(CNC(=O)/C=C/c1ccc(OC(C)=O)c(OC(C)=O)c1)NC(=O)/C=C/c1ccc(OC(C)=O)c(OC(C)=O)c1` (stereo not drawn), the TGI with A498 renal, in the assay with EKVX NSCLC, in the assay with MDA-N, in the assay with MDA-MB-231 breast, with ACHN renal and in the assay with SF-268 CNS was over 100 µM throughout. The TGI in the assay with BT-549 breast, in the assay with T-47D breast, with SF-295 CNS, in the assay on HT29 colon and with M14 melanoma was over 100 µM each time.

Consider `Nc1ccn(CC(O)c2cc3ccccc3[nH]2)c(=O)n1` (stereo not drawn), for which the TGI in the assay on A498 renal, with SNB-75 CNS, with EKVX NSCLC, in the assay on MDA-N, in the assay with MDA-MB-231 breast and in the assay on ACHN renal was over 100 µM throughout. For the same compound, the TGI with SF-268 CNS, in the assay with BT-549 breast, in the assay on T-47D breast, in the assay on SF-295 CNS, with HT29 colon and in the assay with M14 melanoma was over 100 µM each time.

Take `CC(C)(CO)CNc1cc(Cl)nc(N)n1`: the TGI in the assay on A498 renal, with SNB-75 CNS, in the assay on EKVX NSCLC, with MDA-N, in the assay on MDA-MB-231 breast and in the assay with ACHN renal was over 100 µM throughout. Also, the TGI in the assay with SF-268 CNS, in the assay on BT-549 breast, in the assay with T-47D breast, in the assay with SF-295 CNS and in the assay on HT29 colon was over 100 µM throughout.

With `O=C1/C(=C/c2ccc(O)cc2)Oc2ccccc21`, the TGI in the assay with A498 renal, with SNB-75 CNS, in the assay on EKVX NSCLC, in the assay with MDA-N, in the assay on MDA-MB-231 breast and in the assay on ACHN renal was over 100 µM throughout. The TGI in the assay with SF-268 CNS, in the assay on BT-549 breast, in the assay on T-47D breast, in the assay with SF-295 CNS, in the assay on HT29 colon and with M14 melanoma was over 100 µM in each case.

Turning to `CC1C(c2ccccc2)NC(c2ccccc2)CC1(N)C#N` (stereo not drawn), the TGI in the assay on SNB-75 CNS, with EKVX NSCLC, in the assay on MDA-N, in the assay with MDA-MB-231 breast, in the assay with ACHN renal and in the assay on SF-268 CNS was over 100 µM each time. Besides, the TGI in the assay on BT-549 breast, in the assay on T-47D breast, in the assay with SF-295 CNS, with HT29 colon and with M14 melanoma was over 100 µM in each case.

In the case of `CC(C)OP(=O)(OC(C)C)/C(C#N)=C/c1c[nH]c2ccccc12`, the TGI with A498 renal, with SNB-75 CNS, in the assay with EKVX NSCLC, in the assay on MDA-N, in the assay on MDA-MB-231 breast and in the assay with ACHN renal was over 100 µM in each case. The TGI in the assay on SF-268 CNS was over 100 µM; with BT-549 breast, 89.3 µM; in the assay with T-47D breast, over 100 µM; in the assay with SF-295 CNS, over 100 µM; with HT29 colon, over 100 µM; in the assay with M14 melanoma, over 100 µM.

On to `CC1CN=C(c2ccc(CN3CCC(CCCC4CCN(Cc5ccc(C6=NCC(C)N6)cc5)CC4)CC3)cc2)N1` (stereo not drawn), for which the TGI in the assay on A498 renal is over 100 µM; in the assay on SNB-75 CNS it was 87.6 µM; in the assay with EKVX NSCLC, 92 µM; with MDA-N, 38.8 µM; in the assay on MDA-MB-231 breast it was 59.7 µM; with ACHN renal, over 100 µM. For the same compound, the TGI in the assay on SF-268 CNS, in the assay on BT-549 breast, with T-47D breast, with SF-295 CNS, with HT29 colon and with M14 melanoma was over 100 µM each time.

Turning to `C=C(Cl)CN1c2ccccc2C=Cc2ccccc21`, the TGI turned out to be 66.9 µM with A498 renal; 61.9 µM in the assay with SNB-75 CNS; 49.9 µM with EKVX NSCLC; 64.1 µM with MDA-N; 35.7 µM in the assay with MDA-MB-231 breast; 35.4 µM in the assay on ACHN renal. For the same compound, the TGI was over 100 µM in the assay with SF-268 CNS; over 100 µM in the assay with BT-549 breast; 65.2 µM in the assay on T-47D breast; 35.2 µM in the assay on SF-295 CNS; 56.4 µM in the assay with HT29 colon; 57.8 µM in the assay on M14 melanoma.

With `Cc1ccc(C)c2c1n1c(=O)n(C)c(=O)n21`, the TGI in the assay on A498 renal, in the assay with SNB-75 CNS, in the assay on EKVX NSCLC, with MDA-N, in the assay with MDA-MB-231 breast and in the assay with ACHN renal was over 100 µM in each case. Besides, the TGI with SF-268 CNS, with BT-549 breast, with T-47D breast, in the assay with SF-295 CNS, in the assay with HT29 colon and in the assay on M14 melanoma was over 100 µM each time.

With `CNC(=O)C1OC(n2cnc3c(NCc4cccc(I)c4)nc(Cl)nc32)C(O)C1O` (stereo not drawn), the TGI was 33.7 µM with A498 renal; 16.5 µM in the assay on SNB-75 CNS; 31.5 µM in the assay on EKVX NSCLC; 55.4 µM in the assay with MDA-N; 66.6 µM in the assay with MDA-MB-231 breast; 24 µM in the assay on ACHN renal. The TGI came out at 23.5 µM with SF-268 CNS; 28.5 µM in the assay with BT-549 breast; 61.8 µM with T-47D breast; 40.4 µM with SF-295 CNS; 21.9 µM in the assay with M14 melanoma.

For the compound `CC(C)(C)OC(=O)NNCC(O)COc1ccccc1` (stereo not drawn), the TGI in the assay on A498 renal, in the assay with EKVX NSCLC, with MDA-N, in the assay on MDA-MB-231 breast, in the assay with ACHN renal and in the assay with SF-268 CNS was over 100 µM each time. For the same compound, the TGI with BT-549 breast, with T-47D breast, with SF-295 CNS, in the assay on HT29 colon and with M14 melanoma was over 100 µM in each case.
